Consider 21 compounds from PubChem BioAssay AID2644 (Southern Research Specialized Biocontainment Screening …, 2010).

For the assay, the system named is MAGI-CCR5 cells, HIV-1 Ba-L, beta-gal luminescence, 48 h. The assay can be described thus: HIV-1 replication inhibition, CCR5-tropic virus, SAR follow-up, cell-based, HIV-1 Ba-L, beta-gal reporter, 5%/10% serum (AID 2644).
[1] abbreviates: measured here: antiviral IC50 in 10% serum.

For orientation: IC50 means the concentration that gives 50% inhibition.

The source made the active and inactive calls.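 The calls were made as follows: active = compounds cutting the HIV-1 infection reporter signal by at least 50%; inactive = the rest.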 Bounds are passed on as bounds.

Consider `Oc1c(Cl)cc(Cl)c(Cl)c1Cc1c(O)c(Cl)cc(Cl)c1Cl`, for which the IC50 was 49.3 µM. Further, the half-inhibitory concentration (IC50) under setting [1] is > 100 µM.

As to `N#C/C(=C\c1ccc(O)c([N+](=O)[O-])c1)c1nc2ccccc2s1`, the IC50 was 7.96 µM. For the same compound, under setting [1], the concentration for half-maximal inhibition (IC50) came to 15.1 µM.

For the compound `Cc1c(Cl)cccc1NS(=O)(=O)c1ccc2c(c1)C1C=CCC1C(c1ccc(C(=O)O)cc1)N2` (configuration not stated), the IC50 was 16.7 µM. The same compound had a half-maximal inhibitory concentration (IC50) under setting [1] of 40.6 µM.

Turning to `O=C(N/N=C/c1c(O)n(C2CCCCC2)c(=S)[nH]c1=O)c1ccccc1O`, the half-inhibitory concentration (IC50) was 46.4 µM. This compound came in with an IC50 under setting [1] of 45 µM.

With `COc1cc(/C=N/NS(=O)(=O)c2ccc3ccccc3c2)ccc1OCc1ccc(C(=O)O)cc1`, the IC50 is > 100 µM (inactive). Under setting [1], the IC50 is > 100 µM.

On to `CCOC(=O)C1=C(C)N=c2sc(=Cc3ccc(OCC(=O)O)cc3)c(=O)n2C1c1ccc(OC(C)C)cc1` (configuration not stated), for which the half-maximal inhibitory concentration (IC50) was 20.9 µM. Under setting [1], this compound returned a half-maximal inhibitory concentration (IC50) of 26 µM.

As for `CCOc1cc(/C=C2\SC(=O)N(CC(=O)Nc3ccccc3F)C2=O)cc([N+](=O)[O-])c1O`, the IC50 was 21 µM. Further, under setting [1], the IC50 worked out at 26.3 µM.

In the case of `O=C(O)c1ccccc1N=Nc1c(O)[nH]c2ccc([N+](=O)[O-])cc12`, the IC50 was > 100 µM (inactive). Further, the half-inhibitory concentration (IC50) under setting [1] is > 100 µM.

Turning to `CCOC(=O)c1sc(N2C(=O)C(O)=C(C(=O)c3ccc(C)o3)C2c2cccc([N+](=O)[O-])c2)nc1C` (configuration not stated), the IC50 is 20.6 µM. Besides, the IC50 under setting [1] came to 18.5 µM.

As for `O=C1NC(=S)N(c2ccc(F)cc2)C(=O)/C1=C\c1ccoc1`, the IC50 is > 100 µM (inactive). For the same compound, the IC50 under setting [1] is > 100 µM.

Turning to `CC(C)NC(=O)c1sc(=S)n2c1[nH]c(=O)c1ccc(C(=O)NCCc3ccc(Cl)cc3)cc12`, the IC50 is 35.1 µM. Also, under setting [1], the IC50 was 63.4 µM.

Consider `CCC(Sc1nc2ccsc2c(=O)n1Cc1ccc(C(=O)O)cc1)C(=O)Nc1ccc(C)c(Cl)c1` (configuration not stated), for which the half-inhibitory concentration (IC50) was 14.6 µM. Moreover, under setting [1], the IC50 was 37.8 µM.

Consider `COC(=O)c1sc(-c2ccc(C(C)(C)C)cc2)cc1NC(=O)c1ccccc1C(=O)O`, for which the 50% inhibitory concentration (IC50) is 49.9 µM. Moreover, under setting [1], the IC50 came out at 54.9 µM.

Consider `CCC(C)(C)C1CCc2c(sc(NC(=O)c3ccccc3C(=O)O)c2C#N)C1` (configuration not stated), for which the IC50 was > 100 µM (inactive). Moreover, the IC50 under setting [1] is > 100 µM.

With `O=[N+]([O-])c1cc([N+](=O)[O-])c2oc(-c3ccccc3)c(Br)c2c1O`, the IC50 is 4.46 µM. This compound came in with an IC50 under setting [1] of 9.38 µM.

`COc1cc(/C=C2\SC(=O)N(c3ccccc3Cl)C2=O)cc([N+](=O)[O-])c1O`: the IC50 was 13.9 µM. Also, the concentration for half-maximal inhibition (IC50) under setting [1] was 23.8 µM.

As to `CSc1nnc(-c2ccccc2N=Cc2c(C)[nH]n(-c3ccc4ccccc4c3)c2=O)c(=O)[nH]1`, the IC50 is 53.1 µM. The IC50 under setting [1] is > 100 µM.

Turning to `Cc1c2c(=O)n(-c3nc4ccccc4s3)nc-2cc(O)n1Cc1ccccc1`, the concentration for half-maximal inhibition (IC50) is 12.5 µM. The compound also showed an IC50 under setting [1] of 11.1 µM.

As to `O=C(O)CCCN1C(=O)/C(=C/c2ccc(-c3nc4ccccc4s3)o2)SC1=S`, the 50% inhibitory concentration (IC50) was 80.8 µM. Under setting [1], this compound displayed a 50% inhibitory concentration (IC50) of 95.4 µM.

As to `N#C/C(=C\c1ccc(OCc2ccc(Cl)cc2)cc1)C(=O)Nc1cccc(C(=O)O)c1`, the IC50 was > 100 µM (inactive). Moreover, the 50% inhibitory concentration (IC50) under setting [1] is > 100 µM.

For `CC(C)(C)c1cc(-c2csc(Nc3ccccc3)[n+]2Cc2ccc(C(=O)O)cc2)cc(C(C)(C)C)c1O`, the IC50 is 7.17 µM. The compound also showed an IC50 under setting [1] of 12.3 µM.
